These are literature values, as cited in US6803057B2, “Hydrogen peroxide disinfectant with increased activity” (Virox Technologies Inc., priority 1998, dated 2004).

Like-named read-outs stand apart in the source and are kept apart here. Where only a bound is given, the exact number is not on record here.

Data set [1] deals with Salmonella typhimurium and Listeria monocytogenes.

With `CCCCCCCCCCCCc1ccc(S(=O)(=O)O)cc1` [DDBSA, dodecyl benzene sulfonic acid], the “concentration effective in sanitizing” value in data set [1] is at least 200 ppm.
`OO` [hydrogen peroxide]: the corrosivity / irritancy result was “non-corrosive and non-irritating” (1-3 wt./wt. % aqueous solution); “non-corrosive but an eye irritant” (3-7 wt./wt. % aqueous solution); “corrosive” (above about 8 wt./wt. % aqueous solution). For the same compound, the figures for the “time required to disinfect surfaces contaminated with staphylococcus aureus” value in the data set on staphylococcus aureus (0.1 wt./wt. % aqueous solution) and with staphylococcus aureus (25.8 wt./wt. % aqueous solution) were 60 min and 0.333 min, respectively.
